Laboratory results as given in US10004701B2, “Methods and compositions for treating infection” (UNIVERSITY OF ROCHESTER, priority 2012, dated 2018).
Where a name gives a salt, the structure may show the parent alone. Read-outs that look alike come from different tables or passages of the source.

Legend:
Experiment in all cases: AK assay 384-well format, Prestwick library screening
[1] = system: E. faecium; format: cell-based, Enterococcus faecium; settings: for fold induction at 50 µM: Enterococcus faecium, 3 h
[2] = system: S. aureus strain USA300-0114; format: cell-based, Staphylococcus aureus; settings: for fold induction at 50 µM: Staphylococcus aureus, USA300, 3 h
[3] = system: K. pneumoniae; format: cell-based, Klebsiella pneumoniae; settings: for fold induction at 50 µM: Klebsiella pneumoniae, 3 h
[4] = system: A. baumannii strain 98-37-09; format: cell-based, Acinetobacter baumannii; settings: for fold induction at 50 µM: Acinetobacter baumannii, 983709, 3 h
[5] = system: P. aeruginosa; format: cell-based, Pseudomonas aeruginosa; settings: for fold induction at 50 µM: Pseudomonas aeruginosa, 3 h
[6] = system: E. cloacae; format: cell-based, Enterobacter cloacae; settings: for fold induction at 50 µM: Enterobacter cloacae, 3 h
[7] = system: E. coli; format: cell-based, Escherichia coli; settings: for fold induction at 50 µM: Escherichia coli, 3 h
[8] = 50 μM final drug concentration, planktonic, cutoff for positive-scoring molecules 3-fold increase

## CCOC(=O)O[C@]1(C(=O)COC(=O)CC)CC[C@H]2[C@@H]3CCC4=CC(=O)C=C[C@]4(C)[C@H]3[C@@H](O)C[C@@]21C [Prednicarbate]
[1]; 50 μM final drug concentration, cutoff for positive-scoring molecules 3-fold increase, read-out: AK-based Prestwick Library Screening Results, E. faecium (fold increase in extracellular AK activity)
  fold induction at 50 µM: 0.9
[2]; 50 μM final drug concentration, cutoff for positive-scoring molecules 3-fold increase, read-out: AK-based Prestwick Library Screening Results, S. aureus (fold increase in extracellular AK activity)
  fold induction at 50 µM: 0.4
[3]; 50 μM final drug concentration, cutoff for positive-scoring molecules 3-fold increase, read-out: AK-based Prestwick Library Screening Results, K. pneumoniae (fold increase in extracellular AK activity)
  fold induction at 50 µM: 0.5
[4]; 50 μM final drug concentration, cutoff for positive-scoring molecules 3-fold increase, read-out: AK-based Prestwick Library Screening Results, A. baumannii (fold increase in extracellular AK activity)
  fold induction at 50 µM: 0.4
[5]; 50 μM final drug concentration, cutoff for positive-scoring molecules 3-fold increase, read-out: AK-based Prestwick Library Screening Results, P. aeruginosa (fold increase in extracellular AK activity)
  fold induction at 50 µM: 0.4
[6]; 50 μM final drug concentration, cutoff for positive-scoring molecules 3-fold increase, read-out: AK-based Prestwick Library Screening Results, E. cloacae (fold increase in extracellular AK activity)
  fold induction at 50 µM: 0.3
[7]; 50 μM final drug concentration, cutoff for positive-scoring molecules 3-fold increase, read-out: AK-based Prestwick Library Screening Results, E. coli (fold increase in extracellular AK activity)
  fold induction at 50 µM: 0.4

## CCN(CC)C(=S)SSC(=S)N(CC)CC [Disulfiram]
[1]; 50 μM final drug concentration, 384-well format, […], read-out: AK-based Prestwick Library Screening Results, E. faecium (increase in extracellular AK activity)
  fold induction at 50 µM: 1
[2]; 50 μM final drug concentration, 384-well format, […], read-out: AK-based Prestwick Library Screening Results, S. aureus (increase in extracellular AK activity)
  fold induction at 50 µM: 1.1
[3]; 50 μM final drug concentration, 384-well format, […], read-out: AK-based Prestwick Library Screening Results, K. pneumoniae (increase in extracellular AK activity)
  fold induction at 50 µM: 0.6
[4]; 50 μM final drug concentration, 384-well format, […], read-out: AK-based Prestwick Library Screening Results, A. baumannii (increase in extracellular AK activity)
  fold induction at 50 µM: 1
[5]; 50 μM final drug concentration, 384-well format, […], read-out: AK-based Prestwick Library Screening Results, P. aeruginosa (increase in extracellular AK activity)
  fold induction at 50 µM: 0.6
[6]; 50 μM final drug concentration, 384-well format, […], read-out: AK-based Prestwick Library Screening Results, E. cloacae (increase in extracellular AK activity)
  fold induction at 50 µM: 0.7
[7]; 50 μM final drug concentration, 384-well format, […], read-out: AK-based Prestwick Library Screening Results, E. coli (increase in extracellular AK activity)
  fold induction at 50 µM: 0.9

## CC[C@@]1([C@@H]2O[C@@H]([C@H]3O[C@@](O)(CO)[C@H](C)C[C@@H]3C)C[C@@H]2C)CC[C@H]([C@]2(C)CC[C@]3(C[C@H](O)[C@@H](C)[C@@H]([C@@H](C)[C@@H](OC)[C@H](C)C(=O)O)O3)O2)O1 [Monensin sodium salt]
[1]; 50 μM final drug concentration, planktonic, cutoff for positive-scoring molecules 3-fold increase, read-out: AK-based Prestwick Library Screening Results, E. faecium (fold increase in extracellular AK activity)
  fold induction at 50 µM: 1.1
[2]; 50 μM final drug concentration, planktonic, cutoff for positive-scoring molecules 3-fold increase, read-out: AK-based Prestwick Library Screening Results, S. aureus (fold increase in extracellular AK activity)
  fold induction at 50 µM: 0.7
[3]; 50 μM final drug concentration, planktonic, cutoff for positive-scoring molecules 3-fold increase, read-out: AK-based Prestwick Library Screening Results, K. pneumoniae (fold increase in extracellular AK activity)
  fold induction at 50 µM: 0.6
[4]; 50 μM final drug concentration, planktonic, cutoff for positive-scoring molecules 3-fold increase, read-out: AK-based Prestwick Library Screening Results, A. baumannii (fold increase in extracellular AK activity)
  fold induction at 50 µM: 0.7
[5]; 50 μM final drug concentration, planktonic, cutoff for positive-scoring molecules 3-fold increase, read-out: AK-based Prestwick Library Screening Results, P. aeruginosa (fold increase in extracellular AK activity)
  fold induction at 50 µM: 0.9
[6]; 50 μM final drug concentration, planktonic, cutoff for positive-scoring molecules 3-fold increase, read-out: AK-based Prestwick Library Screening Results, E. cloacae (fold increase in extracellular AK activity)
  fold induction at 50 µM: 1.1
[7]; 50 μM final drug concentration, planktonic, cutoff for positive-scoring molecules 3-fold increase, read-out: AK-based Prestwick Library Screening Results, E. coli (fold increase in extracellular AK activity)
  fold induction at 50 µM: 0.9

## C=C(C)[C@@H]1CC[C@]2(CO)CC[C@]3(C)[C@H](CC[C@@H]4[C@@]5(C)CC[C@H](O)C(C)(C)[C@@H]5CC[C@]43C)[C@@H]12 [Betulin]
[1]; planktonic E. faecium, 50 μM final drug concentration, positive cutoff 3-fold increase, read-out: AK-based Prestwick library screening result, E. faecium (fold increase in extracellular AK activity)
  fold induction at 50 µM: 0.9
[2]; planktonic S. aureus, 50 μM final drug concentration, positive cutoff 3-fold increase, read-out: AK-based Prestwick library screening result, S. aureus (fold increase in extracellular AK activity)
  fold induction at 50 µM: 0.3
[3]; planktonic K. pneumoniae, 50 μM final drug concentration, positive cutoff 3-fold increase, read-out: AK-based Prestwick library screening result, K. pneumoniae (fold increase in extracellular AK activity)
  fold induction at 50 µM: 0.7
[4]; planktonic A. baumannii, 50 μM final drug concentration, positive cutoff 3-fold increase, read-out: AK-based Prestwick library screening result, A. baumannii (fold increase in extracellular AK activity)
  fold induction at 50 µM: 0.8
[5]; planktonic P. aeruginosa, 50 μM final drug concentration, positive cutoff 3-fold increase, read-out: AK-based Prestwick library screening result, P. aeruginosa (fold increase in extracellular AK activity)
  fold induction at 50 µM: 0.7
[6]; planktonic E. cloacae, 50 μM final drug concentration, positive cutoff 3-fold increase, read-out: AK-based Prestwick library screening result, E. cloacae (fold increase in extracellular AK activity)
  fold induction at 50 µM: 1.3
[7]; planktonic E. coli, 50 μM final drug concentration, positive cutoff 3-fold increase, read-out: AK-based Prestwick library screening result, E. coli (fold increase in extracellular AK activity)
  fold induction at 50 µM: 0.8

## CCCCOc1ccc(CC(=O)NO)cc1 [Bufexamac]
[1]; 50 μM final drug concentration, 384-well format, cutoff for positive-scoring molecules 3-fold increase, read-out: AK-based Prestwick Library Screening Results, E. faecium (increase in extracellular AK activity)
  fold induction at 50 µM: 0.9
[2]; 50 μM final drug concentration, 384-well format, cutoff for positive-scoring molecules 3-fold increase, read-out: AK-based Prestwick Library Screening Results, S. aureus (increase in extracellular AK activity)
  fold induction at 50 µM: 0.4
[3]; 50 μM final drug concentration, 384-well format, cutoff for positive-scoring molecules 3-fold increase, read-out: AK-based Prestwick Library Screening Results, K. pneumoniae (increase in extracellular AK activity)
  fold induction at 50 µM: 0.5
[4]; 50 μM final drug concentration, 384-well format, cutoff for positive-scoring molecules 3-fold increase, read-out: AK-based Prestwick Library Screening Results, A. baumannii (increase in extracellular AK activity)
  fold induction at 50 µM: 0.5
[5]; 50 μM final drug concentration, 384-well format, cutoff for positive-scoring molecules 3-fold increase, read-out: AK-based Prestwick Library Screening Results, P. aeruginosa (increase in extracellular AK activity)
  fold induction at 50 µM: 0.5
[6]; 50 μM final drug concentration, 384-well format, cutoff for positive-scoring molecules 3-fold increase, read-out: AK-based Prestwick Library Screening Results, E. cloacae (increase in extracellular AK activity)
  fold induction at 50 µM: 0.6
[7]; 50 μM final drug concentration, 384-well format, cutoff for positive-scoring molecules 3-fold increase, read-out: AK-based Prestwick Library Screening Results, E. coli (increase in extracellular AK activity)
  fold induction at 50 µM: 0.5

## CO[C@@H]1C=C2CCN(C)[C@@H]2C2c3cc4c(cc3C(=O)OC21)OCO4.O=[N+]([O-])O (some centres unmarked) [Ungerine nitrate]
[1]; [8]
  AK-based Prestwick Library Screening Results, E. faecium (fold increase in extracellular AK activity): 1.0
[2]; [8]
  AK-based Prestwick Library Screening Results, S. aureus (fold increase in extracellular AK activity): 1.2
[3]; [8]
  AK-based Prestwick Library Screening Results, K. pneumoniae (fold increase in extracellular AK activity): 1.0
[4]; [8]
  AK-based Prestwick Library Screening Results, A. baumannii (fold increase in extracellular AK activity): 1.1
[5]; [8]
  AK-based Prestwick Library Screening Results, P. aeruginosa (fold increase in extracellular AK activity): 1.1
[6]; [8]
  AK-based Prestwick Library Screening Results, E. cloacae (fold increase in extracellular AK activity): 1.4
[7]; [8]
  AK-based Prestwick Library Screening Results, E. coli (fold increase in extracellular AK activity): 1.3

## CC(N)C(O)c1ccccc1 (centres unmarked) [Phenylpropanolamine hydrochloride]
[1]; read-out: AK-based Prestwick Library Screening Results: E. faecium (increase in extracellular AK activity)
  fold induction at 50 µM: 0.8
[2]; read-out: AK-based Prestwick Library Screening Results: S. aureus (increase in extracellular AK activity)
  fold induction at 50 µM: 0.3
[3]; read-out: AK-based Prestwick Library Screening Results: K. pneumoniae (increase in extracellular AK activity)
  fold induction at 50 µM: 0.5
[4]; read-out: AK-based Prestwick Library Screening Results: A. baumannii (increase in extracellular AK activity)
  fold induction at 50 µM: 0.4
[5]; read-out: AK-based Prestwick Library Screening Results: P. aeruginosa (increase in extracellular AK activity)
  fold induction at 50 µM: 0.4
[6]; read-out: AK-based Prestwick Library Screening Results: E. cloacae (increase in extracellular AK activity)
  fold induction at 50 µM: 0.4
[7]; read-out: AK-based Prestwick Library Screening Results: E. coli (increase in extracellular AK activity)
  fold induction at 50 µM: 0.5

## CN1C(=O)OC(C)(C)C1=O [Trimethadione]
[1]; planktonic E. faecium, 50 μM final drug concentration, cutoff for positive-scoring molecules 3-fold increase, read-out: AK-based Prestwick Library Screening Results, E. faecium (increase in extracellular AK activity)
  fold induction at 50 µM: 0.9
[2]; planktonic S. aureus, 50 μM final drug concentration, cutoff for positive-scoring molecules 3-fold increase, read-out: AK-based Prestwick Library Screening Results, S. aureus (increase in extracellular AK activity)
  fold induction at 50 µM: 0.7
[3]; planktonic K. pneumoniae, 50 μM final drug concentration, cutoff for positive-scoring molecules 3-fold increase, read-out: AK-based Prestwick Library Screening Results, K. pneumoniae (increase in extracellular AK activity)
  fold induction at 50 µM: 0.7
[4]; planktonic A. baumannii, 50 μM final drug concentration, cutoff for positive-scoring molecules 3-fold increase, read-out: AK-based Prestwick Library Screening Results, A. baumannii (increase in extracellular AK activity)
  fold induction at 50 µM: 0.9
[5]; planktonic P. aeruginosa, 50 μM final drug concentration, cutoff for positive-scoring molecules 3-fold increase, read-out: AK-based Prestwick Library Screening Results, P. aeruginosa (increase in extracellular AK activity)
  fold induction at 50 µM: 0.8
[6]; planktonic E. cloacae, 50 μM final drug concentration, cutoff for positive-scoring molecules 3-fold increase, read-out: AK-based Prestwick Library Screening Results, E. cloacae (increase in extracellular AK activity)
  fold induction at 50 µM: 1.4
[7]; planktonic E. coli, 50 μM final drug concentration, cutoff for positive-scoring molecules 3-fold increase, read-out: AK-based Prestwick Library Screening Results, E. coli (increase in extracellular AK activity)
  fold induction at 50 µM: 1
